Molecular target: T1, NMDA receptor composed of four subunits including 2 sets of heterodimers of NR1 and NR2B (Homo sapiens, UniProt Q13224)
T1 construct: host or cells: HEK293 (tetracycline-induced expression)
Assay: NR2B Ca2+ influx assay (FLIPR, Fluo-4) in HEK293 cells expressing human GRIN1 and GRIN2B
Type: cell-based
Settings: HEK293, 10 μM final compound concentration, glutamic acid/glycine-induced Ca2+ influx, read-out: inhibitory rate (10 μM compound concentration)
Method in brief: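 Tetracycline-induced (2 h) HEK293 cells expressing human GRIN1/GRIN2B, Fluo-4-loaded, were preincubated 15 min at room temperature with compound at 10 μM final. FLIPR recorded Ca2+ influx every 3 s for 5 min after glutamate/glycine addition (30 μM in added buffer); inhibition from cumulative fluorescence relative to agonist-free wells.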

T1 sequence (Q13224 27-1484, other chains not shown): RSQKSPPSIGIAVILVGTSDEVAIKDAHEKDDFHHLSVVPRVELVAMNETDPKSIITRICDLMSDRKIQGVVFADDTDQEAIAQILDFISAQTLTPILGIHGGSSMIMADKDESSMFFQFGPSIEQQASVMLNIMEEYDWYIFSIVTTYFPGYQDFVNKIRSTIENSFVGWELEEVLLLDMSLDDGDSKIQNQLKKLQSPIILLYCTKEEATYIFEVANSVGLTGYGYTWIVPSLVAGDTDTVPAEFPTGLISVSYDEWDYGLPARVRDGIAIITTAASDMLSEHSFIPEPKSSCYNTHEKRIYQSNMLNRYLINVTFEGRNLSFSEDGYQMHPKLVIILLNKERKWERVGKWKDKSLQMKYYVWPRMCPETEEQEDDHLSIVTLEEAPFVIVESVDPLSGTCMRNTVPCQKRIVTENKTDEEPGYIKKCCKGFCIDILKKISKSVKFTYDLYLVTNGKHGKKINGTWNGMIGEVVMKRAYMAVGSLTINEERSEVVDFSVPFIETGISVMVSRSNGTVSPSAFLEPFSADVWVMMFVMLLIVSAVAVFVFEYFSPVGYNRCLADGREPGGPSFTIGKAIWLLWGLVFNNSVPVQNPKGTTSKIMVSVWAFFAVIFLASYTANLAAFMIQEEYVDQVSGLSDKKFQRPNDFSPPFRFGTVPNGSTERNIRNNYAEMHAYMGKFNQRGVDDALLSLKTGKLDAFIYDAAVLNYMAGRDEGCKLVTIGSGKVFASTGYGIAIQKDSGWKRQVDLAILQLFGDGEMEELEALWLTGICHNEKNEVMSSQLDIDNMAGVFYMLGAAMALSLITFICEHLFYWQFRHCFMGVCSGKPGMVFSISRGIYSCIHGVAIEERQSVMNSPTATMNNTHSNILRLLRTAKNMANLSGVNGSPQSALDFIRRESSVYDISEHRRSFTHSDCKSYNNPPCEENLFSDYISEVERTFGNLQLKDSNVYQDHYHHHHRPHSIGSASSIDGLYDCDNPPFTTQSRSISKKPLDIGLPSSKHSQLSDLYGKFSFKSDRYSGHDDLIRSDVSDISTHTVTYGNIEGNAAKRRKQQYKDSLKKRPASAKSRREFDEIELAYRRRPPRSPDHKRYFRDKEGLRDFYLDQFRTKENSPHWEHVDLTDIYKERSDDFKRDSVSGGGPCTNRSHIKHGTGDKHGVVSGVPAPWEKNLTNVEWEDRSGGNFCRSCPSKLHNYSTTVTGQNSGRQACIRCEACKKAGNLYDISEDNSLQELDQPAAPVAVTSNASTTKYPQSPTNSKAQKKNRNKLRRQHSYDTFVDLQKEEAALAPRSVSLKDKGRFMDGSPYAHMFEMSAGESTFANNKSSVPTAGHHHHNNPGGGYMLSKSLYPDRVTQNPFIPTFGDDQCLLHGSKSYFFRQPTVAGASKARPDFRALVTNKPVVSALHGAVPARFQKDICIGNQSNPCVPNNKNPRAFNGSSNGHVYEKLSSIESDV

Row | Compound | inhibition at 10 µM [%]
1 | COc1ccc2ncn(C)c2c1CNC(=O)c1ccc(Cl)c(C)c1 [Example 39, 4-chloro-N-((6-methoxy-1-methyl-1H-benzimidazol-7-yl)-methyl)-3-methyl-benzamide] | 91
2 | O=C(NCc1cccc2[nH]ncc12)c1ccc(OC(F)(F)F)cc1 [Example 7, N-(1H-indazol-4-ylmethyl)-4-(trifluoromethoxy)benzamide] | 93
3 | COc1ncc(C(=O)NCc2c(C3CC3)ccc3[nH]ncc23)cc1Cl [Example 103, 5-chloro-N-((5-cyclopropyl-1H-indazol-yl)methyl)-6-methoxynicotinamide] | 93
4 | COc1ccc2ncn(C)c2c1CNC(=O)c1cnc(OC(F)F)c(F)c1 [Example 59, 6-(difluoromethoxy)-5-fluoro-N-((6-methoxy-1-methyl-1H-benzimidazol-7-yl)-methyl)nicotinamide] | 94
5 | O=C(NCc1c(C2CC2)ccc2[nH]ncc12)c1ccc(C(F)F)s1 [Example 155, N-((5-cyclopropyl-1H-indazol-4-yl)methyl)-5-(difluoromethyl)-thiophene-2-carboxamide] | 92
6 | O=C(NCc1c(C2CC2)ccc2[nH]ncc12)c1ccc(OC(F)F)c(F)c1 [Example 120, N-((5-cyclopropyl-1H-indazol-4-yl)methyl)-4-(difluoromethoxy)-3-fluorobenzamide] | 92
7 | O=C(NCc1c(C2CC2)ccc2[nH]ncc12)c1cc(Cl)cs1 [Example 70, 4-chloro-N-((5-cyclopropyl-1H-indazol-4-yl)methyl)thiophene-2-carboxamide] | 92
8 | O=C(NCc1c(C2CC2)ccc2[nH]ncc12)c1cc(Cl)c(F)c(Cl)c1 [Example 86, 3,5-dichloro-N-((5-cyclopropyl-1H-indazol-4-yl)methyl)-4-fluorobenzamide] | 94
9 | COc1ncc(C(=O)NCc2cccc3[nH]ncc23)cc1Cl [Example 169, 5-chloro-N-(1H-indazol-4-ylmethyl)-6-methoxynicotinamide] | 70
10 | Cc1ccc(C(=O)NCc2c(C3CC3)ccc3[nH]ncc23)cc1C(F)(F)F [Example 84, N-((5-cyclopropyl-1H-indazol-4-yl)methyl)-4-methyl-3-(trifluoro-methyl)benzamide] | 91
11 | COc1ccc2ncn(C)c2c1CNC(=O)c1cc(F)c(OC)c(F)c1 [Example 8, 3,5-Difluoro-4-methoxy-N-((6-methoxy-1-methyl-1H-benzimidazol-7-yl)methyl)benzamide] | 92
12 | O=C(NCc1c(F)ccc2[nH]ncc12)c1ccc(OC(F)(F)F)cc1 [Example 273, N-[(5-fluoro-1H-indazol-4-yl)methyl]-4-(trifluoromethoxy)-benzamide] | 93
13 | COc1ccc2nc(C)n(C)c2c1CNC(=O)c1ccc(C(F)F)c(Cl)c1 [Example 250] | 58
14 | COc1ccc2ncn(C)c2c1CNC(=O)c1ccc(C)s1 [Example 32, N-((6-methoxy-1-methyl-1H-benzimidazol-7-yl)methyl)-5-methylthiophene-2-carboxamide] | 77
15 | COc1ccc2nc(C)n(C)c2c1CNC(=O)c1csc(C(F)(F)F)c1 [Example 230, N-((6-methoxy-1,2-dimethyl-1H-benzimidazol-7-yl)methyl)-5-(trifluoromethyl)-thiophene-3-carboxamide] | 82
16 | COc1ccc2ncn(C)c2c1CNC(=O)c1cc(Cl)cs1 [Example 42, 4-chloro-N-((6-methoxy-1-methyl-1H-benzimidazol-7-yl)-methyl)thiophene-2-carboxamide] | 87
17 | COc1c(F)cc(C(=O)NCc2c(C)ccc3ncn(C)c23)cc1F [Example 25, N-((1,6-dimethyl-1H-benzimidazol-7-yl)-methyl)-3,5-difluoro-4-methoxybenzamide] | 92
18 | COc1c(F)cc(C(=O)NCc2cccc3[nH]nc(C)c23)cc1F [Example 270, 3,5-difluoro-4-methoxy-N-((3-methyl-1H-indazol-4-yl)methyl)benzamide] | 67
19 | COc1c(F)cc(C(=O)NCc2c(C3CC3)ccc3[nH]nnc23)cc1F [Example 204, N-((5-cyclopropyl-1H-benzotriazol-4-yl)methyl)-3,5-difluoro-4-methoxybenzamide] | 93
20 | CCn1cnc2ccc(OC)c(CNC(=O)c3cnc(OC)c(F)c3)c21 [Example 150, N-((1-ethyl-6-methoxy-1H-benzimidazol-7-yl)methyl)-5-fluoro-6-methoxynicotinamide] | 60
21 | COc1ccc2ncn(C)c2c1CNC(=O)Nc1ccc(F)cc1 [Example 224, 1-(4-fluorophenyl)-3-((6-methoxy-1-methyl-1H-benzimidazol-7-yl)methyl)urea] | 81

Row | Compound | inhibition at 10 µM [%]
22 | COc1ccc(C(=O)NCc2c(C3CC3)ccc3[nH]ncc23)cc1Cl [Example 80, 3-chloro-N-((5-cyclo-propyl-1H-indazol-4-yl)methyl)-4-methoxybenzamide] | 93
23 | COc1ccc2nc(C)n(C)c2c1CNC(=O)c1csc(C(F)F)c1 [Example 232, 5-(difluoromethyl)-N-((6-methoxy-1,2-dimethyl-lH-benzimidazol-7-yl)methyl)thiophene-3-carboxamide] | 64
24 | Cc1ccc(C(=O)NCc2c(C3CC3)ccc3[nH]ncc23)cc1F [Example 93, N-((5-cyclopropyl-1H-indazol-4-yl)methyl)-3-fluoro-4-methyl-benzamide] | 94
25 | CCc1ccc2ncn(C)c2c1CNC(=O)c1ccc(OC)cc1 [Example 145, N-((6-ethyl-1-methyl-1H-benzimidazol-7-yl)methyl)-4-methoxybenzamide] | 92
26 | Cc1ccc2ncn(C)c2c1CNC(=O)c1ccc(C(F)F)s1 [Example 137, 5-(difluoromethyl) -N-((1,6-dimethyl-1H-benzimidazol-7-yl)methyl)thiophene-2-carboxamide] | 72
27 | COc1cc(C(=O)NCc2c(C3CC3)ccc3[nH]ncc23)ccc1Cl [Example 81, 4-chloro-N-((5-cyclopropyl-1H-indazol-4-yl)methyl)-3-methoxybenzamide] | 82
28 | Cc1ccc(C(=O)NCc2c(C)ccc3[nH]nnc23)cc1F [Example 200, 3-fluoro-4-methyl-N-((5-methyl-1H-benzotriazol-4-yl)methyl)benzamide] | 85
29 | CCc1ccc2ncn(C)c2c1CNC(=O)c1cc(F)c(OC(F)F)c(F)c1 [Example 131, 4-(difluoromethoxy)-N-((6-ethyl-1-methyl-1H-benzimidazol-7-yl)methyl)-3,5-difluorobenzamide] | 93
30 | COc1ccc2[nH]nnc2c1CNC(=O)c1ccc(OC(F)(F)F)cc1 [Example 213, N-((5-methoxy-1H-benzotriazol-4-yl)methyl)-4-(trifluoromethoxy)-benzamide] | 98
31 | COc1ccc2ncn(C)c2c1CNC(=O)c1ccc(C)cc1 [Example 114, N-((6-methoxy-1-methyl-1H-benzimidazol-7-yl)methyl)-4-methylbenzamide] | 87
32 | COc1ccc2nc(C)n(C)c2c1CNC(=O)c1ccc(OC(F)F)cc1 [Example 245, 4-(difluoromethoxy)-N-((6-methoxy-1,2-dimethyl-1H-benzimidazol-7-yl)methyl)benzamide] | 81
33 | COc1ccc2ncn(C)c2c1CNC(=O)Nc1ccc(C)cc1 [Example 256, 1-((6-methoxy-1-methyl-1H-benzimidazol-7-yl)methyl)-3-(4-methylphenyl)urea] | 90
34 | CCc1ccc(C(=O)NCc2c(OC)ccc3ncn(C)c23)s1 [Example 122, 5-ethyl-N-((6-methoxy-1-methyl-1H-benzimidazol-7-yl)methyl)thiophene-2-carboxamide] | 90
35 | Cc1ccc(C(=O)NCc2c(C3CC3)ccc3[nH]ncc23)cc1 [Example 99, N-((5-cyclopropyl-1H-indazol-4-yl)methyl)-methylbenzamide] | 91
36 | Cc1ccc2[nH]nnc2c1CNC(=O)c1cc(F)c(C)c(F)c1 [Example 196, 3,5-difluoro-4-methyl-N-((5-methyl-1H-benzotriazol-4-yl)methyl)benzamide] | 78
37 | O=C(NCc1c(C2CC2)ccc2[nH]ncc12)c1cnc(OC(F)F)c(Cl)c1 [Example 121, 5-chloro-N-((5-cyclopropyl-1H-indazol-4-yl)methyl)-6-(difluoromethoxy)-nicotinamide] | 91
38 | COc1ccc2ncn(C)c2c1CNC(=O)c1cc(F)c(C(F)(F)F)c(F)c1 [Example 24, 3,5-difluoro-N-((6-methoxy-1-methyl-1H-benzimidazol-7-yl)-methyl)-4-(trifluoro-methyl)benzaraide] | 90
39 | Cc1ccc(C(=O)NCc2c(C3CC3)ccc3[nH]ncc23)cc1Cl [Example 74, 3-chloro-N-((5-cyclopropyl-1H-indazol-yl)methyl)-4-methylbenzamide] | 93
40 | O=C(NCc1c(C2CC2)ccc2[nH]ncc12)c1ccc(OC(F)(F)F)nc1 [Example 106, N-((5-cyclopropyl-1H-indazol-4-yl)-methyl)-6-(trifluoro-methoxy)nicotinamide] | 93
41 | COc1ccc2ncn(C)c2c1CNC(=O)Nc1cc(F)c(F)c(F)c1 [Example 220, 1-((6-methoxy-1-methyl-lH-benzimidazol-7-yl)methyl)-3-(3,4,5-trifluorophenyl)urea] | 87
42 | O=C(NCc1c(C2CC2)ccc2[nH]ncc12)c1ccc(C(F)(F)F)cc1 [Example 61, N-((5-cyclopropyl-1H-indazol-4-yl)methyl)-4-(trifluoromethyl)-benzamide] | 94

Source: US11230541B2, “Heterocyclic compound” (Takeda Pharmaceutical Company Limited, priority 2017, dated 2022)
